# Key:
# B. anthracis Sterne 105 = format: cell-based, Bacillus anthracis; details: Tween 80 0.002% medium, serum condition not stated
# [1] = test system: methicillin-susceptible S. aureus (MSSA, 22); assay: MIC broth microdilution, MSSA
# [2] = test system: methicillin-resistant S. aureus (MRSA, 22); assay: MIC broth microdilution, MRSA
# [3] = test system: vancomycin-intermediate S. aureus (VISA, 5); assay: MIC broth microdilution, VISA
# [4] = test system: vancomycin-resistant S. aureus (VRSA, 6); assay: MIC broth microdilution, VRSA
# [5] = test system: heterogeneous VISA (hVISA, 10); assay: MIC broth microdilution, hVISA
# S. pneumoniae (22) = assay: MIC broth microdilution, S. pneumoniae
# [6] = test system: Staphylococcus epidermidis (43 strains); assay: MIC broth microdilution, S. epidermidis; details: S. epidermidis (43)
# [7] = test system: VanA vancomycin-resistant E. faecium (10); assay: MIC broth microdilution, VanA E. faecium; details: E. faecium, VanA (10)
# [8] = test system: VanB vancomycin-resistant E. faecium (10); assay: MIC broth microdilution, VanB E. faecium; details: E. faecium, VanB (10)
# S. aureus ATCC 25923 = assay: Neutropenic murine thigh infection model; details: for AUCc-t (AUC difference between control and treated animals): 24 h time kill
# [9] = test system: VanA vancomycin-resistant E. faecalis (11); assay: MIC broth microdilution, VanA E. faecalis; details: E. faecalis, VanA (11)
# [10] = test system: VanB vancomycin-resistant E. faecalis (12); assay: MIC broth microdilution, VanB E. faecalis; details: E. faecalis, VanB (12)
# [11] = test system: Staphylococcus aureus (65 strains); assay: MIC broth microdilution, S. aureus all isolates; details: S. aureus (65), all resistance subsets
# [12] = test system: β-hemolytic streptococci (23); assay: MIC broth microdilution, β-hemolytic streptococci
# VanC enterococci (22) = assay: MIC broth microdilution, vanC-carrying enterococci; details: VanC enterococci (22)
# [13] = test system: vancomycin-susceptible E. faecium (21); assay: MIC broth microdilution, vancomycin-susceptible E. faecium; details: E. faecium, vancomycin-susceptible (21)
# [14] = test system: vancomycin-susceptible E. faecalis (23); assay: MIC broth microdilution, vancomycin-susceptible E. faecalis; details: E. faecalis, vancomycin-susceptible (23)
# [15] = S. pneumoniae (22), MHB + lysed horse blood
# [16] = 1 mg/kg single intraperitoneal dose
# [17] = 4 mg/kg single intraperitoneal dose
# [18] = 16 mg/kg single intraperitoneal dose
# [19] = β-hemolytic streptococci (23), MHB + lysed horse blood
compound,measurement,setting,value
CCCCCCCCCCNCCNC1(C)CC(OC2C(Oc3c4cc5cc3Oc3ccc(cc3Cl)C(O)C3NC(=O)C(NC(=O)C5NC(=O)C(CC(N)=O)NC(=O)C(NC(=O)C(CC(C)C)NC)C(O)c5ccc(c(Cl)c5)O4)c4ccc(O)c(c4)-c4c(O)cc(O)cc4C(C(=O)NCCOCCOCCN)NC3=O)OC(CO)C(O)C2O)OC(C)C1O (stereo not shown) [Compound 2],MIC,B. anthracis Sterne 105,0.03 µg/mL
same,modal MIC,[1]; MSSA,0.03 µg/mL
same,MIC 50%,[1]; MSSA (22),0.03 µg/mL
same,MIC 90%,[1]; MSSA (22),0.12 µg/mL
same,modal MIC,[2]; MRSA,0.06 µg/mL
same,MIC 50%,[2]; MRSA (22),0.06 µg/mL
same,MIC 90%,[2]; MRSA (22),0.12 µg/mL
same,MIC 50%,[3],0.12 µg/mL
same,MIC 50%,[4],1 µg/mL
same,MIC 50%,[5],0.06 µg/mL
same,MIC 90%,[5],0.12 µg/mL
same,fold more potent than linezolid,S. pneumoniae (22); S. pneumoniae,32 fold
same,MIC 50%,S. pneumoniae (22); [15],0.015 µg/mL
same,MIC 90%,S. pneumoniae (22); [15],0.03 µg/mL
same,MIC 50%,[6],0.03 µg/mL
same,MIC 90%,[6],0.06 µg/mL
same,MIC 50%,[7],1 µg/mL
same,MIC 90%,[7],2 µg/mL
same,MIC 50%,[8],0.015 µg/mL
same,MIC 90%,[8],0.03 µg/mL
same,Max Kill (maximum decrease from initial infection level),S. aureus ATCC 25923; [16],−0.28 Log10 CFU/thigh
same,AUCc-t (AUC difference between control and treated animals),S. aureus ATCC 25923; [16],29 (Log10 CFU/thigh)/hr
same,Max Kill (maximum decrease from initial infection level),S. aureus ATCC 25923; [17],−1.01 Log10 CFU/thigh
same,AUCc-t (AUC difference between control and treated animals),S. aureus ATCC 25923; [17],40.1 (Log10 CFU/thigh)/hr
same,Max Kill (maximum decrease from initial infection level),S. aureus ATCC 25923; [18],−1.13 Log10 CFU/thigh
same,AUCc-t (AUC difference between control and treated animals),S. aureus ATCC 25923; [18],55 (Log10 CFU/thigh)/hr
same,organism reduction across doses,"S. aureus ATCC 25923; 1, 4 and 16 mg/kg intraperitoneal",organism reduction over the entire dose range
same,in vivo efficacy against S. aureus (in words),S. aureus ATCC 25923; neutropenic soft tissue infection model,bactericidal characteristics and prolonged in vivo activity
same,MIC 50%,[9],2 µg/mL
same,MIC 90%,[9],4 µg/mL
same,MIC 50%,[10],0.06 µg/mL
same,MIC 90%,[10],0.12 µg/mL
same,MIC 50%,[11],0.06 µg/mL
same,MIC 90%,[11],0.12 µg/mL
same,fold more potent than teicoplanin and daptomycin,[12]; β-hemolytic streptococci,two- to four
same,fold more potent than vancomycin,[12]; β-hemolytic streptococci,four- to eight
same,MIC 50%,[12]; [19],0.03 µg/mL
same,MIC 90%,[12]; [19],0.12 µg/mL
same,MIC 50%,VanC enterococci (22),0.06 µg/mL
same,MIC 90%,VanC enterococci (22),0.12 µg/mL
same,MIC 50%,[13],0.015 µg/mL
same,MIC 90%,[13],0.03 µg/mL
same,MIC 50%,[14],0.06 µg/mL
same,MIC 90%,[14],0.12 µg/mL
CNC(CC(C)C)C(=O)NC1C(=O)NC(CC(N)=O)C(=O)NC2C(=O)NC3C(=O)NC(C(=O)NC(C(=O)NCCOCCOCCOCCN(C)C)c4cc(O)c(CNCCOCCOCCOCCN(C)C)c(O)c4-c4cc3ccc4O)C(O)c3ccc(c(Cl)c3)Oc3cc2cc(c3OC2OC(CO)C(O)C(O)C2OC2CC(C)(NCc3ccc(-c4ccc(Cl)cc4)cc3)C(O)C(C)O2)Oc2ccc(cc2Cl)C1O (stereo not shown) [Compound 23],MIC,B. anthracis Sterne 105,0.12 µg/mL
CNC(CC(C)C)C(=O)NC1C(=O)NC(CC(N)=O)C(=O)NC2C(=O)NC3C(=O)NC(C(=O)NC(C(=O)NCCOCCOCCOCCN)c4cc(O)c(CNCCOCCOCCOCCN)c(O)c4-c4cc3ccc4O)C(O)c3ccc(c(Cl)c3)Oc3cc2cc(c3OC2OC(CO)C(O)C(O)C2OC2CC(C)(NCc3ccc(-c4ccc(Cl)cc4)cc3)C(O)C(C)O2)Oc2ccc(cc2Cl)C1O (stereo not shown) [Compound 24],MIC,B. anthracis Sterne 105,0.03 µg/mL
